Test results from patent US11845714B2, “Process for producing taurine” (Vitaworks IP, LLC, priority 2014, dated 2023).

Conditions: 25% aqueous ammonia at room temperature

Structure (SMILES): NCCS(=O)(=O)O [Taurine, 2-aminoethanesulfonic acid]
- solubility in 25% aqueous ammonia: 36 g in 100 g
